Experimental findings from patent US20250179077A1, “QUINAZOLINE COMPOUNDS AND USES THEREOF AS INHIBITORS OF MUTANT KRAS PROTEINS” (AMGEN INC., priority 2022, published 2025) are described below.

Structures are written as SMILES. Read-outs that look alike come from different tables or passages of the source.

In assay [1] the target is His-tagged KRAS G12D protein (Homo sapiens, UniProt P01116, G12D). In words: KRAS G12D TR-FRET Assay. The assay is classed as binding. In outline:
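His-KRAS G12D (20 nM) was preincubated with titrated compound for 30 min at RT in HEPES pH 7.4 buffer with MgCl2, 10 μM GDP. Biotin-KRPep-2d (20 nM) was then added for 1 h, followed by Eu-anti-His/streptavidin-d2 for 1 h. The 665/615 nm TR-FRET ratio was fitted 4-parameter to give IC50.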

Assay [2] addresses GDP-bound KRAS protein (aa 1-169), containing both G12D and C118A amino acid substitutions (Homo sapiens, UniProt P01116, C118A/G12D). In words: KRAS G12D Coupled Nucleotide Exchange Assay. It counts as biochemical. As for the experimental part: KRAS G12D Coupled Nucleotide Exchange Assay
Following compound pre-incubation, purified SOS protein (aa 564-1049) and GTP (Roche 10106399001) were added to the assay wells and incubated for an additional 30 min. […] The assay plates were then read on a PerkinElmer EnVision Multilabel Reader, using AlphaScreen® technology, and data were analyzed using a 4-parameter logistic model to calculate IC50 values.

Assay [3] relates to Phosphorylation of ERK1/2 in AsPC-1 cells. The assay can be described thus: Phospho-ERK1/2 MSD Assay. The assay is classed as cell-based. An outline of the steps:
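Phospho-ERK1/2 was quantified by MSD whole-cell lysate immunoassay in RIPA lysates made with protease/phosphatase inhibitors. A 4-parameter logistic model gave IC50.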

Where [4] appears, read: Homo sapiens, ASPC1, 2 h, read-out: 2 h p-ERK (AsPC-1 cells), IC50, AsPC-1 cells, 2 h compound treatment.
Setting [5] is: read-out: 2 h p-ERK (AsPC-1 cells), IC50, AsPC-1 cells, 2 h compound treatment.

Chain of GDP-bound KRAS protein (aa 1-169), containing both G12D and C118A amino acid substitutions (P01116 1-169 isoform P01116-2 G12D/C118A): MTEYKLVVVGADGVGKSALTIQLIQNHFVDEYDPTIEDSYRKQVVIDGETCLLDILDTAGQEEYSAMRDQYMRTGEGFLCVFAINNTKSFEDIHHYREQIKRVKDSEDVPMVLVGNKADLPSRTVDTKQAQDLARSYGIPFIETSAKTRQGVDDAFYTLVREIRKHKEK
Chain of His-tagged KRAS G12D protein (P01116 1-188 isoform P01116-2 G12D): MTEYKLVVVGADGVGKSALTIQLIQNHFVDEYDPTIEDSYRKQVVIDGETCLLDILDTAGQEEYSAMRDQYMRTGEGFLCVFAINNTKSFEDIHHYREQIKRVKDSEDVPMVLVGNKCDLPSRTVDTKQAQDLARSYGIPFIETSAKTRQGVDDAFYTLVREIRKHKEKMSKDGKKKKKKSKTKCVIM

In the case of `C#Cc1c(F)ccc2cc(N)cc(-c3ccc4c(N5CCC[C@@](C)(O)C5)nc(OC[C@@]56CCCN5C[C@H](F)C6)nc4c3F)c12` [Example 65, (R)-1-(7-(3-Amino-8-ethynyl-7-fluoronaphthalen-1-yl)-8-fluoro-2-(((2R,7aS)-2-fluorotetrahydro-1H-pyrrolizin-7a(5H)-yl)methoxy)quinazolin-4-yl)-3-methylpiperidin-3-ol], the half-maximal inhibitory concentration (IC50) (as a rule, the point on the concentration scale where inhibition reaches its midpoint) in assay [1] came to 11 nM; in assay [2], 6 nM; in assay [3] (setting [4]), 260 nM.

In the case of `C#Cc1c(F)ccc2cc(N)cc(-c3c(F)cc4c(N5CCCC6(CNC(=O)O6)C5)nc(OC[C@@]56CCCN5C[C@H](F)C6)nc4c3F)c12` (stereo partly drawn) [Example 69, 7-(7-(3-Amino-8-ethynyl-7-fluoronaphthalen-1-yl)-6,8-difluoro-2-(((2R,7aS)-2-fluorotetrahydro-1H-pyrrolizin-7a(5H)-yl)methoxy)quinazolin-4-yl)-1-oxa-3,7-diazaspiro[4.5]decan-2-one], the figures for the IC50 in assay [1], in assay [2] and in assay [3] (setting [4]) were 11 nM, 5 nM and 175 nM, respectively.

With `Cc1cc2[nH]ncc2c(-c2ccc3c(N4CCC[C@](O)(CF)C4)nc(OC[C@@]45CCCN4C[C@H](F)C5)nc3c2F)c1[C@H]1C[C@H]1C` (atropisomer, axis not shown; (aS)) [Example 118, (R)-1-((S)-8-Fluoro-2-(((2R,7aS)-2-fluorotetrahydro-1H-pyrrolizin-7a(5H)-yl)methoxy)-7-(6-methyl-5-((1S,2R)-2-methylcyclopropyl)-1H-indazol-4-yl)quinazolin-4-yl)-3-(fluoromethyl)piperidin-3-ol], the IC50 in assay [1] came to 5 nM; in assay [2], 4 nM; in assay [3] (setting [4]) it was 126 nM.

Take `CCc1c(F)ccc2cc(O)cc(-c3ccc4c(N5CCC[C@@]6(CNC(=O)O6)C5)nc(OC[C@@]56CCCN5C[C@H](F)C6)nc4c3F)c12` (single isomer, unassigned) [Example 89]: the IC50 in assay [1] was 7 nM; in assay [2], 5 nM; in assay [3] (setting [4]), 14 nM.

Take `C/C=C\c1c(Cl)cc2[nH]ncc2c1-c1c(F)cc2c(N3CCOC[C@@](C)(O)C3)nc(OC[C@@]34CCCN3C[C@H](F)C4)nc2c1F` [Example 103, (6S)-4-(7-(6-Chloro-5-((Z)-prop-1-en-1-yl)-1H-indazol-4-yl)-6,8-difluoro-2-(((2R,7aS)-2-fluorotetrahydro-1H-pyrrolizin-7a(5H)-yl)methoxy)quinazolin-4-yl)-6-methyl-1,4-oxazepan-6-ol]: the IC50 was found to be 7 nM in assay [1], 5 nM in assay [2] and 27 nM in assay [3] (setting [4]).

Consider `Oc1cc(-c2ccc3c(N4CCCOCC4)nc(OCC45CCCN4CCC5)nc3c2F)c2ccccc2c1` [Example 43, 4-(8-Fluoro-4-(1,4-oxazepan-4-yl)-2-((tetrahydro-1H-pyrrolizin-7a(5H)-yl)methoxy)quinazolin-7-yl)naphthalen-2-ol], for which the IC50 in assay [1] is 22 nM; in assay [2] it was 13 nM; in assay [3] (setting [4]) it was 1670 nM.

Consider `CCc1c(F)ccc2cc(O)cc(-c3c(F)cc4c(N5C[C@H]6CC[C@@H](C5)O6)nc(OC[C@@]56CCCN5C[C@H](F)C6)nc4c3F)c12` (relative stereo) [Example 18, rel-4-(4-((1R,5S)-8-Oxa-3-azabicyclo[3.2.1]octan-3-yl)-6,8-difluoro-2-(((2R,7aS)-2-fluorotetrahydro-1H-pyrrolizin-7a(5H)-yl)methoxy)quinazolin-7-yl)-5-ethyl-6-fluoronaphthalen-2-ol], for which the IC50 in assay [1] worked out at 46 nM; in assay [2] it was 37 nM; in assay [3] (setting [4]), 2890 nM.

Regarding `CCc1c(F)ccc2cc(O)cc(-c3ccc4c(N5CCOCC(C)(O)C5)nc(OC[C@@]56CCCN5C[C@H](F)C6)nc4c3F)c12` (single isomer, unassigned) [Example 29], the IC50 in assay [1] worked out at 1 nM; in assay [2], 1 nM; in assay [3] (setting [4]), 15 nM.

In the case of `Cc1cc2[nH]ncc2c(-c2c(F)cc3c(N4CCC[C@](O)(CF)C4)nc(OC[C@@]45CCCN4C[C@H](F)C5)nc3c2F)c1C1CC1` (single isomer, unassigned) [Example 100], the IC50 was found to be 4 nM in assay [1], 3 nM in assay [2] and 90 nM in assay [3] (setting [4]).

With `CCc1c(F)ccc2cc(O)cc(-c3ccc4c(N5CCCC6(CNC6=O)C5)nc(OC[C@@]56CCCN5C[C@H](F)C6)nc4c3F)c12` (stereo partly drawn) [Example 52, 6-(7-(8-Ethyl-7-fluoro-3-hydroxynaphthalen-1-y1)-8-fluoro-2-(((2R,7a.S)-2-fluorotetrahydro-1H-pyrrolizin-7a(5H)-yl)methoxy)quinazolin-4-yl)-2,6-diazaspiro[3.5]nonan-1-one], the IC50 in assay [1] worked out at 10 nM; in assay [2] it was 7 nM; in assay [3] (setting [4]), 179 nM.

With `C/C=C\c1c(C)cc2[nH]ncc2c1-c1c(F)cc2c(N3CCOC[C@@](C)(O)C3)nc(OC[C@@]34CCCN3C[C@H](F)C4)nc2c1F` (single isomer, unassigned) [Example 104], the half-maximal inhibitory concentration (IC50) is 2 nM in assay [1], 1 nM in assay [2] and 30 nM in assay [3] (setting [4]).

Turning to `CCc1c(F)ccc2cc(O)cc(-c3ccc4c(N5C[C@H](N)CC(F)(F)C5)nc(OC[C@@]56CCCN5C[C@H](F)C6)nc4c3F)c12` [Example 4, 4-(4-((R)-5-Amino-3,3-difluoropiperidin-1-yl)-8-fluoro-2-(((2R,7aS)-2-fluorotetrahydro-1H-pyrrolizin-7a(5H)-yl)methoxy)quinazolin-7-yl)-5-etbyl-6-fluoronaphthalen-2-ol], the IC50 in assay [1] was determined as 0.3 nM; in assay [2] it was 0.5 nM; in assay [3] (setting [4]), 426 nM.

Regarding `CCc1c(F)ccc2cc(N)cc(-c3c(F)cc4c(N5CCOCC(C)(O)C5)nc(OC[C@@]56CCCN5C[C@H](F)C6)nc4c3F)c12` (single isomer, unassigned) [Example 72], the results for the IC50 in assay [1], in assay [2] and in assay [3] (setting [5]) were 8 nM, 2 nM and 151 nM, respectively.

With `C[C@@H]1C[C@@H]1c1c(Cl)cc2[nH]ncc2c1-c1c(F)cc2c(N3CCOC[C@@](C)(O)C3)nc(OC[C@@]34CCCN3C[C@H](F)C4)nc2c1F` (single isomer, unassigned) [Example 98], the IC50 in assay [1] is 7 nM; in assay [2], 3 nM; in assay [3] (setting [4]) it was 28 nM.

As for `C#Cc1c(F)ccc2cc(O)cc(-c3ccc4c(N5CC6CC(O)C(C6)C5)nc(OC[C@@]56CCCN5C[C@H](F)C6)nc4c3F)c12` (single isomer, unassigned) [Example 17], the IC50 stood at 11 nM in assay [1], 9 nM in assay [2] and 744 nM in assay [3] (setting [4]).

For the compound `CCc1cccc2cc(O)cc(-c3ccc4c(N5CCOCC(C)(O)C5)nc(OC[C@@]56CCCN5C[C@H](F)C6)nc4c3F)c12` (single isomer, unassigned) [Example 30], the IC50 worked out at 3 nM in assay [1], 3 nM in assay [2] and 12 nM in assay [3] (setting [4]).

Consider `CCc1c(F)ccc2cc(O)cc(-c3c(F)cc4c(N5CCOCC(C)(O)C5)nc(OC[C@@]56CCCN5C[C@H](F)C6)nc4c3F)c12` (single isomer, unassigned) [Example 34], for which the IC50 in assay [1], in assay [2] and in assay [3] (setting [4]) was 2 nM in each case.

For the compound `C[C@@H]1CC1c1c(Cl)cc2[nH]ncc2c1-c1c(F)cc2c(N3CCOCC(O)(CF)C3)nc(OC[C@@]34CCCN3C[C@H](F)C4)nc2c1F` (single isomer, unassigned) [Example 99], the values for the IC50 in assay [1], in assay [2] and in assay [3] (setting [4]) were 9 nM, 5 nM and 93 nM, respectively.

`CCc1c(F)ccc2cc(O)cc(-c3ccc4c(N5C[C@H](NC(=O)OC)CC(F)(F)C5)nc(OC[C@@]56CCCN5C[C@H](F)C6)nc4c3F)c12` [Example 5, Methyl ((R)-1-(7-(8-ethyl-7-fluoro-3-hydroxynaphthalen-1-yl)-8-fluoro-2-(((2R,7aS)-2-fluorotetrahydro-1H-pyrrolizin-7a(5H)-yl)methoxy)quinazolin-4-yl)-5,5-difluoropiperidin-3-yl)carbamate]: the IC50 in assay [1] was 3 nM; in assay [2], 3 nM; in assay [3] (setting [4]) it was 303 nM.

`C#Cc1cccc2cc(O)cc(-c3ccc4c(N5CCC[C@@](C)(O)C5)nc(OC[C@@]56CCCN5C[C@H](F)C6)nc4c3F)c12` [Example 50, (R)-1-(7-(8-Ethynyl-3-hydroxynaphthalen-1-yl)-8-fluoro-2-(((2R,7a.S)-2-fluorotetrahydro-1H-pyrrolizin-7a(5H)-yl)methoxy)quinazolin-4-yl)-3-methylpiperidin-3-ol]: the half-maximal inhibitory concentration (IC50) is 3 nM in assay [1], 3 nM in assay [2] and 23 nM in assay [3] (setting [4]).

As for `C/C=C\c1c(C)cc2[nH]ncc2c1-c1c(F)cc2c(N3CCC[C@]4(CCO4)C3)nc(OC[C@@]34CCCN3C[C@H](F)C4)nc2c1F` (single isomer, unassigned) [Example 114], the concentration for half-maximal inhibition (IC50) in assay [1] stood at 6 nM; in assay [2] it was 5 nM; in assay [3] (setting [4]), 87 nM.

With `CCc1c(F)ccc2cc(O)cc(-c3c(F)cc4c(N5CCCC6(CCO6)C5)nc(OC[C@@]56CCCN5C[C@H](F)C6)nc4c3F)c12` (single isomer, unassigned) [Example 38], the 50% inhibitory concentration (IC50) in assay [1] was determined as 12 nM; in assay [2], 12 nM; in assay [3] (setting [5]), 425 nM.
